Measurements published in patent US8445028B2, “Echinoderm-derived extracts, methods of preparation and uses thereof” (Rival, S.E.C., priority 2008, dated 2013).

assay: Oxygen Radical Absorption Capacity (ORAC) assay, fluorescein/AAPH, Trolox equivalents; assay type: biochemical; conditions: pure antioxidants, analyses performed in the present studies; Table IV
Excerpt: The Oxygen Radical Absorption Capacity (ORAC) assay is commonly used to measure the antioxidative capacity of various antioxidants. The ORAC assay provides an effective measure of antioxidant protection afforded to physiologically important biomolecules such as proteins. ORAC assays that may be used in the present invention include, for example, those described in U.S. Pat. No. 6,060,324, Methods in Enzymology (1999) 299: 50-62 (Cao and Prior), and Ou et al., 2001. J. Agric. Food Chem. 49: 4619-4626. […] Unless otherwise stated, the ORAC values are expressed as a TroloxTM equivalent value per gram of extract. Antioxidant properties of extracts were estimated using the Oxygen Radical Absorption Capacity (ORAC) method. The analytical procedure has been adapted from a published method (Ou et al., 2001. J. Agric. Food Chem. 49: 4619-4626), using 96-well microplates and a […] spectrofluorometer (Molecular Devices Corporation, Sunnyvale, Calif., USA). After appropriate dilution (typically between 1/100 to 1/1000), a 30-μl aliquot of the extract was added to each well in which 150 μl of 1.04 μM fluorescein and 30 μl of 162 mM 2,2'-azobis (2-amidinopropane) hydrochloride (AAPH) were previously added. TroloxTM (6-hydroxy-2,5,7,8-tetramethylchroman-2-carboxylic acid), a water soluble analog of vitamin E, was used as positive control, and phosphate buffer pH 7.4 was used as the analytical blank. The reactive mixture was incubated at 37.5° C. for 90 min. Final results were calculated as a function of the difference between the surface under the curves between blanks and extracts, and the antioxidant properties expressed as ORAC values in equivalent micromolar of TroloxTM by dry weight of the sample (μmol TE/g extract).

| Molecule | ORAC values [μmol TE/g dry extract] |
| --- | --- |
| Cc1c(C)c2c(c(C)c1O)CC[C@@](C)(CCC[C@H](C)CCC[C@H](C)CCCC(C)C)O2 [α-Tocopherol] | 5657 |
| CC1=C(/C=C/C(C)=C/C=C/C(C)=C/C=C/C=C(C)/C=C/C=C(C)/C=C/C2=C(C)CCCC2(C)C)C(C)(C)CCC1 [β-carotene] | 3183 |
| Catechin | 16601 |
